Activity calls are given as the source filed them. The calls are words filed in the database; no cut-off is given here.

In ChEMBL document CHEMBL2046426, “Neo-clerodane diterpenes from Salvia herbacea” (J Nat Prod, 2012) one finds inhibition and IC50 data, which are given here for 3 compounds.

Assay [1] deals with Mus musculus. Kind of assay: Antiinflammatory activity in CD-1 mouse assessed as inhibition of TPA-induced ear edema at 0.1 to 1.0 uM applied topically 10 mins before compound challenge measured after 4 hrs. In kind it is functional, organism-based.
Another assay concerns U-251. Kind of assay: Cytotoxicity against human U251 cells after 48 hrs by SRB assay. In kind it is functional, cell-based. As to conditions: U-251, 48 h. A general note: In SRB staining, fixed cells bind dye roughly in proportion to their protein.
The subject of the next assay is SK-LU-1. Description: Cytotoxicity against human SKLU1 cells after 48 hrs by SRB assay. In kind it is functional, cell-based. The note with it: SK-LU-1, 48 h.
Assay [2] deals with Mus musculus. Description: Antiinflammatory activity in CD-1 mouse assessed as inhibition of TPA-induced ear edema applied topically 10 mins before compound challenge measured after 4 hrs. In kind it is functional, organism-based. The note with it: CD-1, Ear.

For `COc1ccc2c(c1)c(CC(=O)O)c(C)n2C(=O)c1ccc(Cl)cc1`, in the assay with Mus musculus [1], the inhibition result was “Active”.

On to `C[C@]12C[C@H](c3ccoc3)OC(=O)[C@@H]1[C@H](O)C[C@@]13COC(=O)C1=CC[C@H]1O[C@]132` [TEHUANINE F], for which the IC50 in the assay with U-251 is 41.9 µM; in the assay on SK-LU-1, 38.9 µM.

`C[C@]12C[C@H](c3ccoc3)OC(=O)[C@@]1(O)CC[C@@]13COC(=O)C1=CC[C@H]1O[C@]132` [TEHUANINE G]: the IC50 in the assay with Mus musculus [2] came to 0.24 µmol/ear.
